From patent US20120114639A1, “COMPOSITIONS AND METHODS FOR INHIBITING VIRAL AND/OR BACTERIAL INFECTIONS” (priority 2010, published 2012)

How the values were obtained:
[1] = tested on: HPV16; assay: HPV16 PsV infection of HaCaT cells, luciferase assay; format: cell-based, human papillomavirus; conditions: for visible toxicity in dose-response analysis: HaCaT cells, dose-response of infection inhibition; for IC50: Human papillomavirus 16, HaCaT, read-out: IC50 of HPV16 infection inhibition; for block of HPV16 infection / reduction of infectivity: HaCaT in CM, 24 hours in presence of inhibitor, 1 μM AG1478, 100 nM PD168393, 100 μM genistein, 1 μM PD173074, 100-600 nM cetuximab, 100 vge/cell; for restoration of HPV16 infectivity in SFM by added factor: serum-starved HaCaT, HPV16 bound in SFM, 24 hours in SFM plus factor, compared to CM
Description: FIG. 2. […] (A, B) Immunoblot for syndecan-1 (polyclonal syndecan-1 Ab) after 24 hours at 37° C. in CM (A) or post starvation in SFM and after six hours at 37° C. in Tyrode's Buffer (B); immunoblot for HPV16 L1 released into CM post virus binding for indicated times (C) or 24 hours (E). […] Cells were untreated (U) or pre-treated with BM or MM for one hour, then exposed to HPV16 PsV in the presence of inhibitors in CM. Infection was assayed by quantifying luciferase levels at 24 hours p.i. (F). Data are represented as mean±SEM of three experiments. (G-H) IC50 of HPV16 infectivity inhibition by MMIP inhibitors batimastat and mariniastat. HaCaT cells incubated with serial dilutions of batimastat or marimastat in CM, for one hour before incubation with 100 viral genome equivalents (vge)/cell HPV16, one hour at 4° C. After washing away unbound virus, cells were incubated for 24 hours at 37° C. in the presence of inhibitors. HPV16 infection was measured with luciferase assay. Data are represented as mean±SEM of 3 experiments.
(§1) FIG. 7. […] (A) Relative HPV16 infection of HaCaT cells in the presence of specific GFR and protein tyrosine kinase inhibitors. […] Cells were exposed to HPV16 PsV at 100 vge/cell for one hour at 4° C., then washed extensively and shifted to 37° C. in the presence of the indicated inhibitor in CM for 24 hours at which time they were analyzed for luciferase expression. Data are represented as mean±SEM of three experiments. (B-C) EGFR knockdown was accomplished using siRNA to EGFR and the percent of EGFR protein remaining in EGFR-siRNA transfected HaCaT cells was determined by immunoblot and compared by densitometry to EGFR levels in cells transfected with a negative control siRNA at 48 hours post transfection. Four separate transfections were analyzed (B) and HPV16 PsV infection levels were measured at 24 hours post infection (48 hours post transfection) in each (C). Error bars represent the average of triplicate luciferase readings from the four transfections. (D) Cells were pre-treated four hours with 100 μm monastrol, pre-treated with monastrol for four hours plus PD168393 for duration, or pre-treated with PD168393 for four hours plus monastrol for duration. […] HaCaT cells starved in SFM (four hours) were exposed to HPV16 in CM (positive control) or SFM. After washing away unbound virus, cells were incubated for 24 hours in CM, Ty (Tyrode's buffer containing 0.05% BSA), SFM, syndecan-1 depleted CM (IP-syd), or EGF-depleted CM (IP-EGF). Infection was quantified by luciferase assay 24 hours post shift to 37° C. Data are represented as mean SEM of three experiments. […] HaCaT cells starved in SFM were exposed to HPV16 in SFM for one hour at 4° C. After washing away unbound virus, cells were incubated for 24 hours in. SFM, SFM containing GF, or in CM. Infections were quantified by luciferase assay; bars represented the mean SEM of three individual experiments. (G). To investigate if infection inhibition by the various agents used in FIG. 7A,D,E could be attributed to cell cycle changes, we used identical conditions and timing of inhibitor treatment on HaCaT cells. We then stained with propidium iodide and examined the cell cycle using flow cytometry. The fractions of cells in G1 (1n), S (intermediate), and G2/M (2n) phases were expressed as percentages of the total.

[2] = tested on: HaCaT cells; assay: Cell cycle analysis by propidium iodide flow cytometry; format: cell-based, human; conditions: HaCaT cells in CM infected with HPV16, same inhibitor conditions as infection assays
Description: as §1, with “To investigate if infection inhibition by the various agents used in FIG. 7A,D,E could be attributed to cell cycle changes, we used identical conditions and timing of inhibitor treatment on HaCaT cells. We then stained with propidium iodide and examined the cell cycle using flow cytometry.” left out

[3] = tested on: HPV16; assay: HPV16 release from HaCaT cells into media, L1 immunoblot; format: cell-based, human papillomavirus; conditions: CM, MMP inhibitor, FIG. 2E
Description: FIG. 2. HPV16 and syndecan-1 release from the HaCaT cell plasma membrane is MMP dependent. (A, B) Immunoblot for syndecan-1 (polyclonal syndecan-1 Ab) after 24 hours at 37° C. in CM (A) or post starvation in SFM and after six hours at 37° C. in Tyrode's Buffer (B); immunoblot for HPV16 L1 released into CM post virus binding for indicated times (C) or 24 hours (E). (D) Gelatin zymography showing protease activity present in HaCaT cell CM alone or with binding of HPV16. (E-F) Effect of MMP inhibitors batimistat (BM) or marimastat (MM) at the indicated concentrations on HPV16 release into media as in panel C and densitometric quantification with AlphaEaseFC software (E) and relative infection levels (F). Cells were untreated (U) or pre-treated with BM or MM for one hour, then exposed to HPV16 PsV in the presence of inhibitors in CM. Infection was assayed by quantifying luciferase levels at 24 hours p.i. (F). Data are represented as mean±SEM of three experiments. […] HPV16 infection was measured with luciferase assay. […]
HaCaT cells were incubated with 200 vge/cell of HPV PsVs for 1 h at 4° C., washed three ties with media and incubated at 37° C. for various times before harvesting the experimental media. […] The eluted fractions were analyzed by SDS-PAGE followed by immunoblotting for HPV16 L1, proteoglycans and growth factors. […]

[4] = tested on: p-EGFR, p-KGFR and downstream effector p-ERK1/2; assay: EGFR and KGFR signal activation, phospho-protein immunoblot in serum-starved HaCaT cells; format: cell-based, human; conditions: 10 minutes ligand exposure; 100 nM PD168393, 1 μM PD173074, 100 μM genistein, 100 μM daidzein, 600 nM cetuximab
Description: FIG. 6. […] (A-B) Immunoblot of p-EGFR, p-KGFR and downstream effector p-ERK1/2 following 10 minutes ligand exposure (listed at the left of each blot: EGF, KGF, HPV16 PsV; lane 2) in serum-starved HaCaT cells. Mock exposed cells were negative controls (lane 1); ligand controls included 10 ng/ml EGF and 10 ng/ml KGF exposure (10 minutes). […] Actin is detected as a loading control. (C-D) Immunoblot of nuclear cell fractions and confocal microscopy localization of p-ERK1/2 following EGF and HPV16 exposure in serum-starved HaCaT cells at indicated times post-exposure. (C) Immunoblot for p-ERK1/2 in nuclear fractions from exposed cells. (D) Immunofluorescent confocal microscopy for localization of p-ERK1/2 (red) in PsV exposed cells. DAPI was used as a nuclear marker and was pseudocolored green to facilitate efficient co-localization of p-ERK1/2 in the nucleus. Parameters of lasers intensities were kept constant during the imaging.
Subconfluent HaCaT cells were serum-starved for 3-4 hours in Tyrode's buffer containing 0.05% BSA. After adding ˜100 vge/cell HPV16 PsV, 10 ng/ml EGF or 10 ng/ml KFG, cells were incubated at 37° C. for 10 minutes before transferring to ice and solubilizing cells with RIPA buffer. In some experiments cells were incubated with various inhibitors in Tyrode's buffer for 45 minutes and after Tyrode's washes, were incubated with virus as above in the presence of inhibitors. Lysates were clarified, mixed with Laemmli buffer and boiled for five minutes prior to SDS-PAGE Tmmunoblot was performed with various monoclonal and polyclonal antibodies: p-EGFR, p-KGFR (p-FGFR2b), p-ERK, actin. Nuclear fractionation was performed for detection of p-ERK movement into the nucleus. HaCaT cells were starved 4 h in Tyrode's solution containing 0.05% BSA, then exposed to HPV or EGF for various times. Cells were solubilized with NP40 lysis buffer and centrifuged. The pellet was incubated with nuclear extraction buffer. Following incubation on ice for one hour, the extract was clarified and the supernatant subjected to SDS-PAGE and immunoblot for analysis of p-ERK content.

## CNC(=O)[C@@H](NC(=O)[C@H](CC(C)C)[C@H](O)C(=O)NO)C(C)(C)C [marimastat]
[1]; CM, luciferase 24 hours p.i.
  HPV16 infection of HaCaT cells (in words): efficiently reduced HPV16 infection
[1]; HaCaT cells grown in CM and infected with HPV16
  infection inhibition under cell cycle assay conditions: ~90%
[1]
  visible toxicity in dose-response analysis: absence of visible toxicity
  IC50: 1 µM
[2]
  cell cycle distribution (G1, S, G2/M) versus no treatment: relatively similar
[3]
  release of HPV16 from cells: effectively prevented the release

## CCN(CC)CCCCNc1ncc2cc(-c3cc(OC)cc(OC)c3)c(NC(=O)NC(C)(C)C)nc2n1 [PD173074]
[1]
  block of HPV16 infection / reduction of infectivity: 35%
[2]
  cell cycle distribution (G1, S, G2/M) versus no treatment: relatively similar

## EGF: epidermal growth factor
[1]
  restoration of HPV16 infectivity in SFM by added factor: fully restore infection levels

## O=c1c(-c2ccc(O)cc2)coc2cc(O)ccc12 [daidzein]
[4]
  rapid phosphorylation of the target GFR and downstream p-ERK1/2 induced by GFs or HPV16: no inhibitory effect

## O=c1c(-c2ccc(O)cc2)coc2cc(O)cc(O)c12 [genistein]
[1]
  block of HPV16 infection / reduction of infectivity: almost completely blocked infection
[4]
  rapid phosphorylation of the target GFR and downstream p-ERK1/2 induced by GFs or HPV16: diminished

## C=CC(=O)Nc1ccc2ncnc(Nc3cccc(Br)c3)c2c1 [PD168393]
[1]; HaCaT, 100 μM monastrol plus PD168393, FIG. 7D
  infection inhibition when PD168393 treatment was added with monastrol: ≈ 70%
[2]
  cell cycle distribution (G1, S, G2/M) versus no treatment: relatively similar
[4]
  rapid phosphorylation of the target GFR and downstream p-ERK1/2 induced by GFs or HPV16: diminished

## COc1cc2ncnc(Nc3cccc(Cl)c3)c2cc1OC [AG1478]
[4]
  rapid phosphorylation of the target GFR and downstream p-ERK1/2 induced by GFs or HPV16: completely abrogating signaling

## albumin
[1]
  restoration of HPV16 infectivity in SFM by added factor: did not enhance infectivity

## CNC(=O)[C@H](Cc1ccccc1)NC(=O)[C@H](CC(C)C)[C@H](CSc1cccs1)C(=O)NO [batimastat]
[1]
  visible toxicity in dose-response analysis: absence of visible toxicity
  IC50: 0.4 µM
